ChEMBL document CHEMBL1128908, “Synthesis and biological evaluation of 2,3-diarylthiophenes as selective cox-2 inhibitors. part II: Replacing the heterocycle” (Bioorg Med Chem Lett, 1996)

What was measured:
[1] = biological target: Prostaglandin G/H synthase 1 (Homo sapiens, UniProt P23219); experiment: biochemical; type: cell-based, Sf9, Microsomes
Description: Inhibitory activity against human recombinant Prostaglandin G/H synthase 1 expressed in microsomes taken from baculovirus infected Sf9 cells

[2] = biological target: T1, Prostaglandin G/H synthase 2 (Homo sapiens, UniProt P35354); experiment: biochemical; type: cell-based, Sf9, Microsomes
T1 sequence (P35354 whole entry): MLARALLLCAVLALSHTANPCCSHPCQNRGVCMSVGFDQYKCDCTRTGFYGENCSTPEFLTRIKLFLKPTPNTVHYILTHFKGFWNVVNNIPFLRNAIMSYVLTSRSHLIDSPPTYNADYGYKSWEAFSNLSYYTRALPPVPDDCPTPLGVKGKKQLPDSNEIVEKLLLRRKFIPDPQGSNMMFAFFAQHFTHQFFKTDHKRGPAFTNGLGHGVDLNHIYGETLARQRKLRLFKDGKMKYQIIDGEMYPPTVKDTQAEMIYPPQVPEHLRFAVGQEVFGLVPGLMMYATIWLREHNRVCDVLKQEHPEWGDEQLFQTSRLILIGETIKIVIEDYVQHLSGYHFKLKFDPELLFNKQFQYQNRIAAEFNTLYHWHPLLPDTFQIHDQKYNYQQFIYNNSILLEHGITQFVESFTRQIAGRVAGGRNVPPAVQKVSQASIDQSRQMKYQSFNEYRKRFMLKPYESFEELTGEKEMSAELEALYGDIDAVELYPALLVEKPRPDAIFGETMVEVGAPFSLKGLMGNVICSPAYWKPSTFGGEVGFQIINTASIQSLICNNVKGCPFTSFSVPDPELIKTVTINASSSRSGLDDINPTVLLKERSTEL
Description: Inhibitory activity against human recombinant Prostaglandin G/H synthase 2 expressed in microsomes taken from baculovirus infected Sf9 cells

[3] = test system: Rattus norvegicus; experiment: Compound was evaluated in vivo for potency against rat paw edema model; type: functional
[4] = Plasma concentration at 2 hr in rats was evaluated.; type: ADME, organism-based; settings: rat
[5] = test system: Rattus norvegicus; experiment: Compound was evaluated in vivo for effect on gastrointestinal integrity(GI) in rats using [51Cr]- assay: causes lesions; type: functional, organism-based
[6] = test system: Rattus norvegicus; experiment: Compound was evaluated in vivo for effect on gastrointestinal integrity(GI) in rats using [51Cr]- assay: no lesions observed; type: functional, organism-based
[7] = test system: Rattus norvegicus; experiment: Compound was evaluated in vivo for effect on gastrointestinal integrity (GI) in rats using [51Cr]- assay: causes lesions; type: functional, organism-based

Prostaglandin G/H synthase 1, sequence (P23219 whole entry): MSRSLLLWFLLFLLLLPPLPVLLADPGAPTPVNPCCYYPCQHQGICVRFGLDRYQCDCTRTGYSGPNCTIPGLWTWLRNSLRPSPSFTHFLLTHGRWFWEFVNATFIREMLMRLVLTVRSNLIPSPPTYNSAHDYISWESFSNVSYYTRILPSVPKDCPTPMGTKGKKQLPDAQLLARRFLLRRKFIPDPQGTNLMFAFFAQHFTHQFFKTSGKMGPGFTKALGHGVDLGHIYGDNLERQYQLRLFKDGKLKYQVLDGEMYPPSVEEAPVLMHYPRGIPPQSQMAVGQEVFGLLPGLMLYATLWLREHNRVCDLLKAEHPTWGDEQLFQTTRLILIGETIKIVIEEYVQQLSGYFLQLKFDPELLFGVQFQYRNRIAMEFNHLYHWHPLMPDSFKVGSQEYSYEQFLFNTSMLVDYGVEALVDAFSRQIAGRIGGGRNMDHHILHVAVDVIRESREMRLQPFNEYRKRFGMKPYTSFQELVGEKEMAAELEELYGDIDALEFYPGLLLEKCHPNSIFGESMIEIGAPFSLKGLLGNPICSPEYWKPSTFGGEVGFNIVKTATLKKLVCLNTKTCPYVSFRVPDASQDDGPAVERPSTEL

| IC50 [1] [µM] | IC50 [2] [µM] | SMILES | other results |
| --- | --- | --- | --- |
| > 100 | 5.1 | CS(=O)(=O)c1ccc(-c2sncc2-c2ccc(F)cc2)cc1 |  |
| > 100 | > 30 | CS(=O)(=O)c1ccc(-c2[nH]cnc2-c2ccc(F)cc2)cc1 |  |
| > 50 | > 30 | CC(C)(O)c1scc(-c2ccc(F)cc2)c1-c1ccc(S(C)(=O)=O)cc1 |  |
| > 1.1 | 1.2 | CS(=O)(=O)c1ccc(-c2cc(C(F)(F)F)nn2-c2ccc(F)cc2)cc1 |  |
| > 50 | 30 | CS(=O)(=O)c1ccc(C2=C(c3ccc(F)cc3)C3CCC2C3)cc1 (stereo unspecified) |  |
| > 100 | > 30 | CS(=O)(=O)c1ccc(-n2nnnc2-c2ccc(F)c(F)c2)cc1 |  |
| 1.2 |  | CS(=O)(=O)c1ccc(-c2csc(Br)c2-c2ccc(F)cc2)cc1 |  |
| > 100 | 0.47 | CS(=O)(=O)c1ccc(-c2cscc2-c2ccc(F)cc2)cc1 |  |
| > 100 | 2.1 | CS(=O)(=O)c1ccc(-c2cnsc2-c2ccc(F)cc2)cc1 | ED50 [3]: 10 mg/kg; concentration at 2 h [4]: 2200 ng/mL |
| > 100 | > 30 | CS(=O)(=O)c1ccc(-c2ncoc2-c2ccc(F)cc2)cc1 |  |
| > 50 | > 30 | CS(=O)(=O)c1ccc(-c2c(-c3ccc(F)cc3)csc2Br)cc1 |  |
| > 50 | > 30 | CS(=O)(=O)c1ccc(-c2nnnn2-c2ccc(F)c(F)c2)cc1 |  |
| > 50 | > 30 | CS(=O)(=O)c1ccc(-c2[nH]nnc2-c2ccccc2)cc1 |  |
|  |  | COc1ccc2c(c1)c(CC(=O)O)c(C)n2C(=O)c1ccc(Cl)cc1 [INDOMETHACIN] | ED50 [3]: 2 mg/kg; growth inhibition (GI) [5]: Causes lesions |
| > 50 | 5.9 | CC(C)(O)c1scc(-c2ccc(S(C)(=O)=O)cc2)c1-c1ccc(F)cc1 |  |
| > 100 | 0.31 | Cc1nc(-c2ccc(S(C)(=O)=O)cc2)c(-c2ccc(F)cc2)s1 |  |
| > 100 | > 30 | CS(=O)(=O)c1ccc(-c2ocnc2-c2ccc(F)cc2)cc1 |  |
| > 50 | > 30 | CS(=O)(=O)c1ccc(-c2oc(=O)oc2-c2ccccc2)cc1 |  |
| > 50 | > 10 | CS(=O)(=O)c1ccc(-c2c(-c3ccc(F)cc3)csc2CC(=O)O)cc1 |  |
| > 100 | 6.5 | CS(=O)(=O)c1ccc(-c2snnc2-c2ccc(F)cc2)cc1 | growth inhibition (GI) [6]: no lesions observed; ED50 [3]: 0.7 mg/kg; concentration at 2 h [4]: 12800 ng/mL |
| > 100 | 0.31 | Cc1nc(-c2ccc(F)cc2)c(-c2ccc(S(C)(=O)=O)cc2)s1 |  |
|  |  | CS(=O)(=O)c1ccc(-c2cc(Br)sc2-c2ccc(F)cc2)cc1 [DUP-697] | growth inhibition (GI) [7]: causes lesions; ED50 [3]: 1.3 mg/kg; concentration at 2 h [4]: 700 ng/mL |
| > 50 | > 10 | CS(=O)(=O)c1ccc(-c2csc(CC(=O)O)c2-c2ccc(F)cc2)cc1 |  |
